Legend:
[1] = test system: activation of plasminogen with two-chain t-PA (tc-tPA); settings: s-2251
Description: (§1) Fifty microliters each of various concentration of DS (BIDS, CCDS) or chondroitin sulfate (control group), 25 μL of 1.6 μM plasminogen and 25 μL of 20 nM of single or two-chain t-PA, and 100 μL of 0.6 mM a synthetic substrate S-2251 (H-D-Val-L-Leu-L-Lys-p-nitroanilide·2HCl) were mixed and the absorbancy at 405 nm was determined every 2 minutes with an automatic microtiter plate reader. The reaction was carried out at 37° C. in a buffer composed of 60 mM TriS-HCl with Tween^RTM 80.
(§2) The initial rate of activation of plasminogen was calculated as follows; the slope of plots of, .LAMBDA.405, an absorbancy at 405 nm at time t to the square of time (Δ.LAMBDA.405 /Δt^2) was divided by 40,000 (Chibber, B. A. K., et al., Biochemistry, 1985, pp. 3429-3434). The stimulation rate was calculated from ratios to DS or chondroitin sulfate free conditions which was made the initial rate 1 (one).

[2] = test system: activation of plasminogen with single-chain t-PA (sc-tPA); settings: s-2251
Description: as §1, §2

chondroitin sulfate
stimulation rate of activation of plasminogen (ratio to DS or chondroitin sulfate free conditions) [1]: ≤ 1.5 fold | stimulation rate of activation of plasminogen (ratio to DS or chondroitin sulfate free conditions) [2]: ≤ 2.5 fold
